# Molecular target: T1, His tagged full-length PTP1B protein (Homo sapiens, UniProt P18031)
# T1 construct: made in house
# T1 sequence (P18031 with tags, fused parts or gaps): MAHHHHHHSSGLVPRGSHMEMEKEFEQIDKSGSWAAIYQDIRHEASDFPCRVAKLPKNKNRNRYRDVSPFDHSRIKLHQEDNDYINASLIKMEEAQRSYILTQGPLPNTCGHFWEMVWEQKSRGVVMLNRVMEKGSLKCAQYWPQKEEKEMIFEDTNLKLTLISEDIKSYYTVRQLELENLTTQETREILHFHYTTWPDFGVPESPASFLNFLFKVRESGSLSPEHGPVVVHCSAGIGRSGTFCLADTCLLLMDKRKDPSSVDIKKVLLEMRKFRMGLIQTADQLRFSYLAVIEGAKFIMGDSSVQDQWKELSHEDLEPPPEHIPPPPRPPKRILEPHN
# Experiment: Mobility Shift Assay (MSA) used to determine potency of PTP1B inhibitors
# Assay type: biochemical
# Conditions: Table 2
# Protocol: The enzymatic assay used to determine activity is a mobility shift assay using a LabChip EZ Reader by Caliper Life Sciences. The enzymatic reaction was carried out in assay buffer (50 mM HEPES pH 7.5, 1 mM EGTA, 10 mM EDTA, 0.01% Tween® 20, and 2 mM DTT). […] The enzyme (at 0.5 nM) was incubated with compound for 10 minutes at room temperature. […] The % inhibition was then used to calculate the IC50 values.
row,IC50 [nM],SMILES
1,> 100,"CCOCCOc1ccc2cc(O)c(N3CC(=O)NS3(=O)=O)c(F)c2c1 [Compound 246, 5-[7-(2-ethoxyethoxy)-1-fluoro-3-hydroxynaphthalen-2-yl]-1λ^6,2,5-thiadiazolidine-1,1,3-trione]"
2,1 to 10,"COCCCOc1ccc2cc(O)c(N3CC(=O)NS3(=O)=O)c(F)c2c1 [Compound 247, 5-[1-fluoro-3-hydroxy-7-(3-methoxypropoxy)naphthalen-2-yl]-1λ^6,2,5-thiadiazolidine-1,1,3-trione]"
3,1 to 10,"O=C1CN(c2c(O)cc3ccc(CC4CCN(CC(F)(F)F)CC4)cc3c2F)S(=O)(=O)N1 [Compound 252, 5-(1-fluoro-3-hydroxy-7-{[1-(2,2,2-trifluoroethyl)piperidin-4-yl]methyl}naphthalen-2-yl)-1λ^6,2,5-thiadiazolidine-1,1,3-trione]"
4,10 to 100,"O=C1CN(c2c(O)cc3ccc(C4=CCOC4)cc3c2F)S(=O)(=O)N1 [Compound 263, 5-[7-(2,5-dihydrofuran-3-yl)-1-fluoro-3-hydroxynaphthalen-2-yl]-1λ^6,2,5-thiadiazolidine-1,1,3-trione]"
5,1 to 10,"O=C1CN(c2c(O)cc3ccc(C4=CCNC4)cc3c2F)S(=O)(=O)N1 [Compound 265, 5-[7-(2,5-dihydro-1H-pyrrol-3-yl)-1-fluoro-3-hydroxynaphthalen-2-yl]-1λ^6,2,5-thiadiazolidine-1,1,3-trione]"
6,10 to 100,"O=C1CN(c2c(O)cc3ccc(CC4CNC4)cc3c2F)S(=O)(=O)N1 [Compound 267, 5-{7-[(azetidin-3-yl)methyl]-1-fluoro-3-hydroxynaphthalen-2-yl}-1λ^6,2,5-thiadiazolidine-1,1,3-trione]"
7,1 to 10,"CNC(=O)CCCOc1ccc2cc(O)c(N3CC(=O)NS3(=O)=O)c(F)c2c1 [Compound 269, 4-{[8-fluoro-6-hydroxy-7-(1,1,4-trioxo-1λ^6,2,5-thiadiazolidin-2-yl)naphthalen-2-yl]oxy}—N-methylbutanamide]"
8,> 100,"O=C1CN(c2c(O)cc3ccc(OCC4CCOCC4)cc3c2F)S(=O)(=O)N1 [Compound 273, 5-{1-fluoro-3-hydroxy-7-[(oxan-4-yl)methoxy]naphthalen-2-yl}-1λ^6,2,5-thiadiazolidine-1,1,3-trione]"
9,> 100,"O=C1CN(c2c(O)cc3ccc(O)cc3c2F)S(=O)(=O)N1 [Compound 276, 5-(1-fluoro-3,7-dihydroxynaphthalen-2-yl)-1λ^6,2,5-thiadiazolidine-1,1,3-trione]"
10,10 to 100,"CCCOc1ccc2cc(O)c(N3CC(=O)NS3(=O)=O)c(F)c2c1 [Compound 278, 5-(1-fluoro-3-hydroxy-7-propoxynaphthalen-2-yl)-1λ^6,2,5-thiadiazolidine-1,1,3-trione]"

# Further lines, the compound ahead of its results:
row,SMILES,IC50 [nM]
1,"C=C(c1ccc2cc(O)c(N3CC(=O)NS3(=O)=O)c(F)c2c1)c1c(C)c(C)c(C)c(C)c1C [Compound 241, 5-{1-fluoro-3-hydroxy-7-[1-(pentamethylphenyl)ethenyl]naphthalen-2-yl}-1λ^6,2,5-thiadiazolidine-1,1,3-trione]",> 100
2,"O=C1CN(c2c(O)cc3ccc(C4=CCN(CC5CC5)C4)cc3c2F)S(=O)(=O)N1 [Compound 242, 5-{7-[1-(cyclopropylmethyl)-2,5-dihydro-1H-pyrrol-3-yl]-1-fluoro-3-hydroxynaphthalen-2-yl}-1λ^6,2,5-thiadiazolidine-1,1,3-trione]",1 to 10
3,"COc1ccc2c(Br)c(O)c(N3CC(=O)NS3(=O)=O)c(F)c2c1 [Compound 243, 5-(4-bromo-1-fluoro-3-hydroxy-7-methoxynaphthalen-2-yl)-1λ^6,2,5-thiadiazolidine-1,1,3-trione]",> 100
4,"COC/C=C/c1ccc2cc(O)c(N3CC(=O)NS3(=O)=O)c(F)c2c1 [Compound 245, 5-{1-fluoro-3-hydroxy-7-[(1E)-3-methoxyprop-1-en-1-yl]naphthalen-2-yl}-1λ^6,2,5-thiadiazolidine-1,1,3-trione]",1 to 10
5,"O=C1CN(c2c(O)cc3ccc(C4CCS(=O)(=O)CC4)cc3c2F)S(=O)(=O)N1 [Compound 248, 5-[7-(1,1-dioxo-1λ^6-thian-4-yl)-1-fluoro-3-hydroxynaphthalen-2-yl]-1λ^6,2,5-thiadiazolidine-1,1,3-trione]",> 100
6,"O=C1CN(c2c(O)cc3ccc(OCC4CC4)cc3c2F)S(=O)(=O)N1 [Compound 250, 5-[7-(cyclopropylmethoxy)-1-fluoro-3-hydroxynaphthalen-2-yl]-1λ^6,2,5-thiadiazolidine-1,1,3-trione]",1 to 10
7,"O=C1CN(c2c(O)cc3ccc(CC4CN(S(=O)(=O)C5CC5)C4)cc3c2F)S(=O)(=O)N1 [Compound 256, 5-(7-{[1-(cyclopropanesulfonyl)azetidin-3-yl]methyl}-1-fluoro-3-hydroxynaphthalen-2-yl)-1λ^6,2,5-thiadiazolidine-1,1,3-trione]",1 to 10
8,"O=C1CN(c2c(O)cc3ccc(C4=CCOCC4)cc3c2F)S(=O)(=O)N1 [Compound 264, 5-[7-(3,6-dihydro-2H-pyran-4-yl)-1-fluoro-3-hydroxynaphthalen-2-yl]-1λ^6,2,5-thiadiazolidine-1,1,3-trione]",10 to 100
9,"O=C1CN(c2c(O)cc3ccc(-c4cccnc4)cc3c2F)S(=O)(=O)N1 [Compound 266, 5-[1-fluoro-3-hydroxy-7-(pyridin-3-yl)naphthalen-2-yl]-1λ^6,2,5-thiadiazolidine-1,1,3-trione]",> 100
10,"O=C(CNc1ccc2cc(O)c(N3CC(=O)NS3(=O)=O)c(F)c2c1)NCCC1CC1 [Compound 268, N-(2-cyclopropylethyl)-2-{[8-fluoro-6-hydroxy-7-(1,1,4-trioxo-1λ^6,2,5-thiadiazolidin-2-yl)naphthalen-2-yl]amino}acetamide]",10 to 100
11,"CCNC(=O)NCCOc1ccc2cc(O)c(N3CC(=O)NS3(=O)=O)c(F)c2c1 [Compound 270, N-ethyl-N′-(2-{[8-fluoro-6-hydroxy-7-(1,1,4-trioxo-1λ^6,2,5-thiadiazolidin-2-yl)naphthalen-2-yl]oxy}ethyl)urea]",1 to 10
12,"O=C1CN(c2c(O)cc3ccc(OC4COC4)cc3c2F)S(=O)(=O)N1 [Compound 274, 5-{1-fluoro-3-hydroxy-7-[(oxetan-3-yl)oxy]naphthalen-2-yl}-1λ^6,2,5-thiadiazolidine-1,1,3-trione]",1 to 10
13,"O=C1CN(c2c(O)cc3ccc(C4=CCN(CC(F)(F)F)CC4)cc3c2F)S(=O)(=O)N1 [Compound 275, 5-{1-fluoro-3-hydroxy-7-[1-(2,2,2-trifluoroethyl)-1,2,3,6-tetrahydropyridin-4-yl]naphthalen-2-yl}-1λ^6,2,5-thiadiazolidine-1,1,3-trione]",10 to 100
14,"O=C1CN(c2c(O)cc3ccc(OCCO)cc3c2F)S(=O)(=O)N1 [Compound 277, 5-[1-fluoro-3-hydroxy-7-(2-hydroxyethoxy)naphthalen-2-yl]-1λ^6,2,5-thiadiazolidine-1,1,3-trione]",> 100
15,"CC(C)Oc1ccc2cc(O)c(N3CC(=O)NS3(=O)=O)c(F)c2c1 [Compound 279, 5-{1-fluoro-3-hydroxy-7-[(propan-2-yl)oxy]naphthalen-2-yl}-1λ^6,2,5-thiadiazolidine-1,1,3-trione]",> 100
16,"O=C(O)CNc1ccc2cc(O)c(N3CC(=O)NS3(=O)=O)c(F)c2c1 [Compound 280, {[8-fluoro-6-hydroxy-7-(1,1,4-trioxo-1λ^6,2,5-thiadiazolidin-2-yl)naphthalen-2-yl]amino}acetic acid]",> 100
17,"O=C(COc1ccc2cc(O)c(N3CC(=O)NS3(=O)=O)c(F)c2c1)NCCC1CC1 [Compound 281, N-(2-cyclopropylethyl)-2-{[8-fluoro-6-hydroxy-7-(1,1,4-trioxo-1λ^6,2,5-thiadiazolidin-2-yl)naphthalen-2-yl]oxy}acetamide]",10 to 100
18,"CCN(CC)C(=O)COc1ccc2cc(O)c(N3CC(=O)NS3(=O)=O)c(F)c2c1 [Compound 282, N,N-diethyl-2-{[8-fluoro-6-hydroxy-7-(1,1,4-trioxo-1λ^6,2,5-thiadiazolidin-2-yl)naphthalen-2-yl]oxy}acetamide]",10 to 100
19,"O=C1CN(c2c(O)cc3ccc(OCC(=O)N4CCCC4)cc3c2F)S(=O)(=O)N1 [Compound 283, 5-{1-fluoro-3-hydroxy-7-[2-oxo-2-(pyrrolidin-1-yl)ethoxy]naphthalen-2-yl}-1λ^6,2,5-thiadiazolidine-1,1,3-trione]",10 to 100
20,"CS(=O)(=O)N1CCC(Oc2ccc3cc(O)c(N4CC(=O)NS4(=O)=O)c(F)c3c2)CC1 [Compound 284, 5-(1-fluoro-3-hydroxy-7-{[1-(methanesulfonyl)piperidin-4-yl]oxy}naphthalen-2-yl)-1λ^6,2,5-thiadiazolidine-1,1,3-trione]",1 to 10
21,"COCCS(=O)(=O)N1CC=C(c2ccc3cc(O)c(N4CC(=O)NS4(=O)=O)c(F)c3c2)C1 [Compound 286, 5-{1-fluoro-3-hydroxy-7-[1-(2-methoxyethanesulfonyl)-2,5-dihydro-1H-pyrrol-3-yl]naphthalen-2-yl}-1λ^6,2,5-thiadiazolidine-1,1,3-trione]",< 1
22,"O=C1CN(c2c(O)cc3ccc(C4=CCN(S(=O)(=O)CCC(F)(F)F)C4)cc3c2F)S(=O)(=O)N1 [Compound 287, 5-{1-fluoro-3-hydroxy-7-[1-(3,3,3-trifluoropropane-1-sulfonyl)-2,5-dihydro-1H-pyrrol-3-yl]naphthalen-2-yl}-1λ^6,2,5-thiadiazolidine-1,1,3-trione]",1 to 10

# Reference: patent US20230019236A1, “PROTEIN TYROSINE PHOSPHATASE INHIBITORS AND METHODS OF USE THEREOF” (Calico Life Sciences LLC, priority 2019, published 2023)
